The source of these data is US20240335462A1, “SULFUR/PHOSPHORUS-CONTAINING ARYL COMPOUND AND APPLICATION THEREOF” (MEDSHINE DISCOVERY INC., priority 2021, published 2024).

Structures can show the parent of a compound that is named as a salt. Where two headings read alike, the source gives them in different places. Marks after values point to notes of the source that are not given here.

Data set [1] addresses Ba/F3-FL-TYK2-E957D cells (Homo sapiens, UniProt P29597, E957D, cells depend on it). Put plainly: Proliferation of Ba/F3-FL-TYK2-E957D cells (CellTiter-Glo). It is filed as cell-based, mouse. The settings on record: 72 hours, read-out: Half maximal inhibitory concentration IC50 for cells Ba/F3-FL-TYK2-E957D. The text has this:
Adenosine triphosphate (ATP) serves as a universal energy carrier in various life processes, representing the smallest unit of energy storage and transfer. The CellTiter-Glo™ Luminescent Cell Viability Assay Kit utilizes luciferase as a detection agent. During the luminescent process, luciferase requires the participation of ATP. By adding CellTiter-Glo™ reagent to the cell culture medium and measuring the luminescence, the light signal was directly proportional to the amount of ATP in the system, and ATP was positively correlated with the number of viable cells. Therefore, cell proliferation can be detected by measuring ATP content using the CellTiter-Glo kit. In this test, the cell lines used were Ba/F3-FL-TYK2-E957D and Ba/F3-TEL-TYK2. Ba/F3-FL-TYK2-E957D cells can stably express the exogenously introduced human TYK2-E957D gene, and the TYK2-E957D gene sequence contains both JH1 and JH2 domains. On the other hand, Ba/F3-TEL-TYK2 cells can stably express the exogenously introduced human TEL-TYK2 gene, and the TEL-TYK2 gene sequence contains only the JH1 domain of TYK2.
The cell lines were cultured in an incubator at 37° C. with 5% CO2. Regular passaging was performed, and cells in the logarithmic growth phase were selected for plating.
• a) The test compounds were prepared into a 10 mM solution with DMSO, and then diluted to 0.3 or 1 mM with DMSO. • b) Preparation of 1000× compound storage plate (tube): The compounds were 3-fold serially diluted from the highest concentration to the lowest concentration, creating 9 different concentrations. • c) Preparation of 20× compound working solution: 49 μL of cell culture medium was added to a flat-bottomed 96-well transparent drug plate. From the 1000× compound storage plate, 1 μL of the compound was pipetted into the cell culture medium in the 96-well transparent drug plate. In the solvent control, 1 μL of DMSO was added. After the compound or DMSO was added, the mixture was homogenized using a multi-channel pipette.
• a) Cells were stained with trypan blue and viable cells were counted to ensure a cell viability of 90% or more. • b) 95 μL of cell suspension (2000 cells/well) was added to each well of the compound assay cell plate, and cell-free culture medium containing 0.1% DMSO was added to the Min control wells. • c) Administration in the compound assay cell plate: 5 μL of 20× compound working solution was added to the cell culture plate. 5 μL of DMSO-cell culture medium mixture was added to the Max control wells. The final concentration of DMSO was 0.1%. • d) The culture plate was then incubated in an incubator at 37° C. with 5% CO2 for 72 hours.
The following steps were conducted in accordance with the instructions of the Promega CellTiter-Glo Luminescent Cell Viability Assay Kit (Promega-G7573). • a) CellTiter-Glo buffer was thawed and brought to room temperature. • b) CellTiter-Glo substrate was also brought to room temperature. • c) CellTiter-Glo buffer was added to a bottle of CellTiter-Glo substrate to dissolve the substrate, thereby preparing CellTiter-Glo working solution. • d) The mixture was slowly vortexed and shaken to be fully dissolved. • e) The cell culture plate was removed and allowed to equilibrate to room temperature for 10 minutes. • f) 50 μL (equal to half the volume of cell culture medium in each well) of CellTiter-Glo working solution was added to each well. • g) The culture plate was shaken on an orbital shaker for 2 minutes to induce cell lysis. • h) The plate was then left at room temperature for 10 minutes to stabilize the luminescent signal. • i) The luminescent signal was detected using a SpectraMax Paradigm plate reader.
Data analysis was conducted using GraphPad Prism 5.0 software. Nonlinear S-curve regression was employed to fit the data and generate dose-response curves. From these curves, the IC50 values were calculated.

In data set [2] the test system is IL-23-induced psoriasis-like skin lesions. Put plainly: Mouse psoriasis-like model induced by IL-23. It is filed as in vivo, C57BL/6 mice. Set-up: Total score for epidermal hyperplasia of ear pinnae / AUC of total score for epidermal hyperplasia of ear pinnae / Pathological score: Degree of keratinization / Pathological score: Epidermal thickness / Pathological score: Dermal thickness / Pathological score: Inflammatory cell infiltration / Comprehensive pathological score: scale not given here. An excerpt:
The purpose of this experiment was to evaluate the prophylactic and therapeutic effect of the test substance on IL-23-induced psoriasis-like skin lesions in mice by intradermal injection of IL-23 into the ear pinnae in a psoriasis-like skin lesion model.
Female C57BL/6 mice of qualified body weight were randomly divided into groups, with 6 mice per group. The grouping and administration information was as follows. The groups were: blank control group, model group, positive control Ustekinumab (5 mg/kg) group, WX-011A hydrochloride (30, 50 mg/kg) group, and WX-020 sulfate (30, 50 mg/kg) group. Except for the blank control group, the animals in the other groups received an intradermal injection of IL-23 (3 μg/10 μL/mouse/day, QD) in the right ear for 8 consecutive days (Day 0 to Day 7). The blank control group received an intradermal injection of an equal volume of saline solution (10 μL/mouse/day, QD) in the right ear for 8 consecutive days (Day 0 to Day 7). Concurrent with model induction, the solvent or test drug was orally administered twice a day (Bid) at 6-hour intervals for 8 consecutive days (Day 0 to Day 7). The positive control was subcutaneously injected on Day 0 and Day 3 (a total of 2 doses). During the administration period, the body weight of the animals was monitored every two days. On Day 0, Day 2, Day 4, Day 6 (all before IL-23 injection), and Day 8, the thickness of the right ear of the mice was measured, and the appearance of the ear pinnae was observed and scored.
The compounds were all prepared into a clear solution with 10% DMSO+[…] as a solvent for PO (oral gavage) administration. Administration volume parameters: 10 mL/kg based on the body weight of the mice.
After grouping, IL-23 (3 μg/10 μL/mouse/day, QD) was injected intradermally into the right ears of the mice for 8 consecutive days (Day 0 to Day 7). Measurements of the thickness of the right ear and observations and scoring of the appearance of the ear pinnae were performed on Day 0, Day 2, Day 4, Day 6 (all before IL-23 injection), and Day 8. At the end of the experiment (Day 8), the left ear tissues of the mice from groups G4 to G10 (3 animals per group at each time point) were collected. The right ear, which had been modeled, was excised, an 8 mm ear punch was taken along the edge of the pinna, and its weight was measured. The excised right ear tissues were fixed in formalin for histopathological examination (H&E staining).
Concurrent with model induction, corresponding drug treatment was given for administration. Except for the positive control drug (Ustekinumab), which was subcutaneously injected on Day 0 and Day 3 (once a day), control and test drugs for each dose group were orally administered by gavage twice a day at 6-hour intervals for 8 consecutive days (Day 0 to Day 7).
The pathological scoring of mouse ear tissue sections was conducted according to the criteria in Table 33.
The experimental data are represented as Mean±SD; statistical analysis was performed using IBM SPSS Statistics 21, with p<0.05 considered to indicate a statistically significant difference between the two groups. The effect of the test substance on the thickness of mouse ears in the IL-23 induced mouse pinna epidermal hyperplasia model is shown in Table 34. The effect of the test substance on the total score and AUC for […] induced mouse pinna epidermal hyperplasia is shown in Table 35.

The nature of data set [3]: Pharmacokinetic testing in mice. It is filed as in vivo, male CD-1 mice. Conditions: mouse; for Vd / AUC(0-t) / half-life / C0 / bioavailability / Cmax / Tmax: male, CD-1, plasma; for Vd: read-out: Apparent volume of distribution Vd; for AUC(0-t): read-out: Area under the curve AUC0-last; for half-life: read-out: Half-life T1/2 (converted); for C0: read-out: Starting concentration C0; for bioavailability: read-out: Bioavailability F %; for Cmax: read-out: Peak concentration Cmax; for Tmax: read-out: Time to peak concentration Tmax. As for the experimental part: The objective was to study the pharmacokinetic behavior of the compound of the present disclosure in mice and evaluate the pharmacokinetic characteristics, using male CD-1 mice aged 7 to 9 weeks as test animals. The drug concentrations in plasma at different time points after a single intravenous injection (IV) and oral administration (PO) of the compound were determined using LC/MS/MS.
The pharmacokinetic characteristics of the compound in rodents following intravenous injection and oral administration were tested using a standard protocol. Test animals were fasted for 10 to 14 hours before administration and allowed to feed 4 hours post-administration. The compound was prepared into a clear solution with the appropriate solvent for both IV (intravenous injection) and PO (oral gavage) administration. The solvent was 10% DMSO+10% solutol+80% (10% HP-β-CD aqueous solution). Whole blood samples were collected within 24 hours, centrifuged at 6000 g for 3 minutes, and the supernatant was separated to obtain plasma samples. Protein precipitation was performed by adding four times the volume of acetonitrile solution containing internal standard to the plasma samples. After centrifugation, the supernatant was added with an equal volume of water and then centrifuged before being subjected to LC-MS/MS analysis for quantifying plasma drug concentration. Pharmacokinetic parameters such as peak concentration, time to peak concentration, clearance, half-life, area under the drug-time curve, and bioavailability were calculated.

[4] abbreviates: 5 mg/kg SC on Day 0 and Day 3, Day 0.
Where [5] appears, read: 5 mg/kg SC on Day 0 and Day 3, Day 2.
Where [6] appears, read: 5 mg/kg SC on Day 0 and Day 3, Day 4.
[7] abbreviates: 5 mg/kg SC on Day 0 and Day 3, Day 6.
[8] abbreviates: 5 mg/kg SC on Day 0 and Day 3, Day 8.
[9] abbreviates: 5 mg/kg SC, right ear H&E sections.

Chain of Ba/F3-FL-TYK2-E957D cells (P29597 whole entry E957D): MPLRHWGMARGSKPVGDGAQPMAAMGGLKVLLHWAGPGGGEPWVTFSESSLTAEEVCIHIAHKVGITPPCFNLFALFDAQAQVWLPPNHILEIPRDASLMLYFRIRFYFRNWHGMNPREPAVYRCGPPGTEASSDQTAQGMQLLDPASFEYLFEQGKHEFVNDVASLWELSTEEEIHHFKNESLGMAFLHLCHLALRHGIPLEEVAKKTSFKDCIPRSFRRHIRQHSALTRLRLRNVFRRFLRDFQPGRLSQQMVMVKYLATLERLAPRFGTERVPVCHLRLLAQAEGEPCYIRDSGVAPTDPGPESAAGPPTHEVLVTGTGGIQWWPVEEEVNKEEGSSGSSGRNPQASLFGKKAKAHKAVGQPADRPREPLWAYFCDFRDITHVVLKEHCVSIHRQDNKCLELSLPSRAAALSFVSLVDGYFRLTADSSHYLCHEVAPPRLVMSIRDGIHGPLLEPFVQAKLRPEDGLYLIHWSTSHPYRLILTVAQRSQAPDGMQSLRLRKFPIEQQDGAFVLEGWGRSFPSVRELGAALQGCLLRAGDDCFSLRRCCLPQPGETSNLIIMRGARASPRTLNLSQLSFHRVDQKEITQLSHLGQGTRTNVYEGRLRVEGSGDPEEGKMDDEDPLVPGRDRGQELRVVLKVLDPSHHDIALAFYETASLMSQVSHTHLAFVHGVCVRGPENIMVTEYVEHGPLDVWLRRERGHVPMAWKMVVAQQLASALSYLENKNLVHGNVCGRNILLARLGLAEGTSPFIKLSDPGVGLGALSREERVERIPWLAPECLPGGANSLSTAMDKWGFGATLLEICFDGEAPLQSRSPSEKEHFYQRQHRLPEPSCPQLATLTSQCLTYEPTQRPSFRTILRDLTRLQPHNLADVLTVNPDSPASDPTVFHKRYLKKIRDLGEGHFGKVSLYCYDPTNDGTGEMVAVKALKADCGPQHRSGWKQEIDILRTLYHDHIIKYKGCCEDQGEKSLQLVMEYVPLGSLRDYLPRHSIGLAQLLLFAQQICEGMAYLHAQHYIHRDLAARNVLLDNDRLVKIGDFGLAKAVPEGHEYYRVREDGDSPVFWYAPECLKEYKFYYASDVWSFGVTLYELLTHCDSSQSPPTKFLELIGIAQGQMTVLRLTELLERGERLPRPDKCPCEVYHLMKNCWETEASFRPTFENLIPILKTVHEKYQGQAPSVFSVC

Take `[2H]C([2H])([2H])NC(=O)c1cnc(NC(=O)C2CC2)cc1Nc1cccc(-c2ncc(S(=N)(=O)C(C)C)cn2)c1OC` (centres unmarked) [Trifluoroacetate of WX-009]: in data set [1], the GI50 came out at 12.1 nM.
Regarding `CNC(=O)c1cnc(NC(=O)C2CC2)cc1Nc1cc(F)cc(-c2ccc(S(C)(=O)=O)cc2)c1OC` [Trifluoroacetate of WX-026], the GI50 in data set [1] worked out at 18.8 nM.
Still for that read-out and setting: with `[2H]C([2H])([2H])NC(=O)c1cnc(NC(=O)C2CC2)cc1Nc1cccc(-c2ccc(S(C)(=O)=NC)cc2)c1OC` (centres unmarked) [Hydrochloride of WX-010] the figure was 12.6 nM; with `CNC(=O)c1nnc(NC(=O)C2CC2)cc1Nc1cccc(-c2ccc(S(=N)(=O)C(C)C)nn2)c1OC` (single isomer, unassigned) [WX-036B], 17.3 nM.
In the case of `CNC(=O)c1nnc(NC(=O)C2CC2)cc1Nc1cccc(-c2ccc(P(=O)(C3CC3)C3CC3)cc2)c1OC` [WX-024], the GI50 in data set [1] turned out to be 10 nM.
`CNC(=O)c1cnc(NC(=O)C2CC2)cc1Nc1cccc(-c2ncc(S(=O)(=O)N(C)C)cn2)c1OC` [Hydrochloride of WX-017]: in data set [1], the GI50 is 4 nM.
“Ustekinumab: positive control Ustekinumab (anti-IL-12/IL-23), Selleck, subcutaneously injected [reference compound]”: in data set [2] (setting [4]), the “Ear thickness (mm)” value came out at 0.196 mm and the “Total score for epidermal hyperplasia of ear pinnae” value amounted to 0.00. In addition, the “AUC of total score for epidermal hyperplasia of ear pinnae” value in data set [2] (5 mg/kg SC on Day 0 and Day 3, Day 0 to Day 8) is on record as 2.83**. In data set [2] (setting [5]), the “Ear thickness (mm)” value is 0.277* mm and the “Total score for epidermal hyperplasia of ear pinnae” value is listed as 0.00. Besides, in data set [2] (setting [6]), the “Ear thickness (mm)” value is given as 0.288** mm and the “Total score for epidermal hyperplasia of ear pinnae” value is 0.33*. Also, in data set [2] (setting [7]), the “Ear thickness (mm)” value is reported as 0.316** mm and the “Total score for epidermal hyperplasia of ear pinnae” value is reported as 0.67**. In addition, in data set [2] (setting [8]), the “Ear thickness (mm)” value is given as 0.329* mm and the “Total score for epidermal hyperplasia of ear pinnae” value was 0.83**. In data set [2] (setting [9]), the Comprehensive pathological score is 3.50**, the “Pathological score: Degree of keratinization” value was 0.50**, the “Pathological score: Dermal thickness” value was determined as 0.67 and the “Pathological score: Epidermal thickness” value is reported as 1.17**. In addition, the “Pathological score: Inflammatory cell infiltration” value in data set [2] (setting [9]) is listed as 1.17**.
On to `CNC(=O)c1cnc(NC(=O)C2CC2)cc1Nc1cc(F)cc(-c2ncc(S(=O)(=O)C(C)C)cn2)c1OC` [WX-030], for which, in data set [1], the GI50 worked out at 2 nM.
A word on the bioavailability: it is the share of a dose that reaches the circulation, judged against a reference dose that is usually intravenous. On to `CNC(=O)c1nnc(NC(=O)C2CC2)cc1Nc1cccc(-c2ncc(S(=N)(=O)C(C)C)cn2)c1OC` (centres unmarked) [WX-011], for which, in data set [3] (IV 1 mg/kg), the Vd was found to be 0.7 L/kg, the AUC(0-t) turned out to be 4.79 µM·h, the half-life is 3.2 h and the C0 is 5.42 µM. Moreover, the “Apparent clearance Cl” value in data set [3] (IV 1 mg/kg) came out at 6.6 mL/min/kg. Further, in data set [3] (PO 10 mg/kg), the AUC(0-t) worked out at 25 µM·h, the bioavailability came to 52%, the Cmax was found to be 10.2 µM and the Tmax stood at 0.5 h.
For `CNC(=O)c1nnc(NC(=O)C2CC2)cc1Nc1cccc(-c2ccc(S(=N)(=O)C(C)C)cn2)c1OC` (centres unmarked) [WX-012], in data set [3] (IV 1 mg/kg), the Vd was 2.9 L/kg, the AUC(0-t) came to 2.46 µM·h, the half-life is 4.4 h and the C0 was 2.75 µM. For the same compound, in data set [3] (IV 1 mg/kg), the “Apparent clearance Cl” value turned out to be 12.8 mL/min/kg. Also, in data set [3] (PO 10 mg/kg), the AUC(0-t) was found to be 16.7 µM·h, the bioavailability came to 68%, the Cmax was 12.4 µM and the Tmax stood at 0.3 h.
